{"source": "patent US20260262643A1", "about": "“HERBICIDAL BENZOXAZINES” (FMC CORPORATION, priority 2022, published 2026)", "key": {"[1]": {"tested_on": "green foxtail", "experiment": "Test C preemergence", "type": "in vivo, Setaria viridis", "settings": "0 to 100 scale (0 no effect, 100 complete control)", "outline": "(§1)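 Visual injury score, 0–100 (100 = complete control), taken 10 days after treatment relative to untreated controls. Pre: directed spray onto soil over sown seeds. Post: foliar spray at one- to two-leaf stage, 2–10 cm. Solvent/surfactant formulation; loam–sand soil; greenhouse.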"}, "[2]": {"tested_on": "ducksalad", "experiment": "Test D flooded paddy test", "type": "in vivo, Heteranthera limosa", "settings": "250 g ai/ha, applied to paddy water, visual rating after 13 to 14 days, scale 0 to 100 (0 no effect, 100 complete control)", "outline": "(§2)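 Visual ratings from 0, meaning no effect, to 100, meaning complete control, were assigned against untreated controls 13 to 14 days after compounds were added to the floodwater of pots kept 3 cm deep, with plants at the 2-leaf stage.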"}, "[3]": {"tested_on": "wheat", "experiment": "Test C preemergence", "type": "in vivo, Triticum aestivum", "settings": "0 to 100 scale (0 no effect, 100 complete control)", "outline": "as §1"}, "[4]": {"tested_on": "ryegrass, Italian", "experiment": "Test C postemergence", "type": "in vivo, Lolium multiflorum", "settings": "10 days", "outline": "as §1"}, "[5]": {"tested_on": "soybean", "experiment": "Test C preemergence", "type": "in vivo, Glycine max", "settings": "0 to 100 scale (0 no effect, 100 complete control)", "outline": "as §1"}, "[6]": {"tested_on": "kochia", "experiment": "Test C preemergence", "type": "in vivo, Bassia scoparia", "settings": "0 to 100 scale (0 no effect, 100 complete control)", "outline": "as §1"}, "[7]": {"tested_on": "barnyardgrass", "experiment": "Test C postemergence", "type": "in vivo, Echinochloa crusgalli", "settings": "10 days", "outline": "as §1"}, "[8]": {"tested_on": "green foxtail", "experiment": "Test C postemergence", "type": "in vivo, Setaria viridis", "settings": "10 days", "outline": "as §1"}, "[9]": {"tested_on": "soybean", "experiment": "Test C postemergence", "type": "in vivo, Glycine max", "settings": "10 days", "outline": "as §1"}, "[10]": {"tested_on": "ryegrass, Italian", "experiment": "Test C preemergence", "type": "in vivo, Lolium multiflorum", "settings": "0 to 100 scale (0 no effect, 100 complete control)", "outline": "as §1"}, "[11]": {"tested_on": "corn", "experiment": "Test C preemergence", "type": "in vivo, Zea mays", "settings": "0 to 100 scale (0 no effect, 100 complete control)", "outline": "as §1"}, "[12]": {"tested_on": "sedge, umbrella", "experiment": "Test D flooded paddy test", "type": "in vivo, Cyperus difformis", "settings": "250 g ai/ha, applied to paddy water, visual rating after 13 to 14 days, scale 0 to 100 (0 no effect, 100 complete control)", "outline": "as §2"}, "[13]": {"tested_on": "oat, wild", "experiment": "Test C preemergence", "type": "in vivo, Avena fatua", "settings": "0 to 100 scale (0 no effect, 100 complete control)", "outline": "as §1"}, "[14]": {"tested_on": "blackgrass", "experiment": "Test C postemergence", "type": "in vivo, Alopecurus myosuroides", "settings": "10 days", "outline": "as §1"}, "[15]": {"tested_on": "galium", "experiment": "Test C postemergence", "type": "in vivo, Galium aparine", "settings": "10 days", "outline": "as §1"}, "[16]": {"tested_on": "rice", "experiment": "Test D flooded paddy test", "type": "in vivo, Oryza sativa", "settings": "250 g ai/ha, applied to paddy water, visual rating after 13 to 14 days, scale 0 to 100 (0 no effect, 100 complete control)", "outline": "as §2"}, "[17]": {"tested_on": "kochia", "experiment": "Test C postemergence", "type": "in vivo, Bassia scoparia", "settings": "10 days", "outline": "as §1"}, "[18]": {"tested_on": "pigweed, palmer", "experiment": "Test C preemergence", "type": "in vivo, Amaranthus palmeri", "settings": "0 to 100 scale (0 no effect, 100 complete control)", "outline": "as §1"}, "[19]": {"tested_on": "barnyardgrass", "experiment": "Test C preemergence", "type": "in vivo, Echinochloa crusgalli", "settings": "0 to 100 scale (0 no effect, 100 complete control)", "outline": "as §1"}, "[20]": {"tested_on": "barnyardgrass", "experiment": "Test D flooded paddy test", "type": "in vivo, Echinochloa crus-galli", "settings": "250 g ai/ha, applied to paddy water, visual rating after 13 to 14 days, scale 0 to 100 (0 no effect, 100 complete control)", "outline": "as §2"}, "[21]": {"tested_on": "ragweed", "experiment": "Test C preemergence", "type": "in vivo, Ambrosia artemisiifolia", "settings": "0 to 100 scale (0 no effect, 100 complete control)", "outline": "as §1"}, "[22]": {"tested_on": "wheat", "experiment": "Test C postemergence", "type": "in vivo, Triticum aestivum", "settings": "10 days", "outline": "as §1"}, "[23]": {"tested_on": "pigweed, palmer", "experiment": "Test C postemergence", "type": "in vivo, Amaranthus palmeri", "settings": "10 days", "outline": "as §1"}, "[24]": {"tested_on": "oat, wild", "experiment": "Test C postemergence", "type": "in vivo, Avena fatua", "settings": "10 days", "outline": "as §1"}, "[25]": {"tested_on": "corn", "experiment": "Test C postemergence", "type": "in vivo, Zea mays", "settings": "10 days", "outline": "as §1"}, "[26]": {"tested_on": "ragweed", "experiment": "Test C postemergence", "type": "in vivo, Ambrosia artemisiifolia", "settings": "10 days", "outline": "as §1"}, "[27]": {"tested_on": "blackgrass", "experiment": "Test C preemergence", "type": "in vivo, Alopecurus myosuroides", "settings": "0 to 100 scale (0 no effect, 100 complete control)", "outline": "as §1"}, "[28]": {"tested_on": "horseweed", "experiment": "Test C postemergence", "type": "in vivo, Erigeron canadensis", "settings": "10 days", "outline": "as §1"}, "[29]": {"settings": "Preemergence, 500 g ai/ha, visual rating after 10 days"}, "[30]": {"settings": "Test C, preemergence, 125 g ai/ha"}, "[31]": {"settings": "125 g ai/ha, postemergence, 0 to 100 scale, 0 no effect, 100 complete control"}, "[32]": {"settings": "Postemergence, 500 g ai/ha, visual 0 to 100 scale (0 no effect, 100 complete control)"}}}
{"smiles": "CCn1cnc(-c2cccc(C(=O)N3C[C@H](C)Oc4c(Cl)cccc43)c2)n1", "note": "[Compound 173]", "values": [{"measurement": "Plant response rating, Foxtail, Green", "setting": "[1]; [29]", "result": 0}, {"measurement": "Foxtail, Green plant response rating", "setting": "[1]; [30]", "result": 0}, {"measurement": "Plant response rating, Ducksalad (Flood)", "setting": "[2]", "result": 0}, {"measurement": "Plant response rating, Wheat", "setting": "[3]; [29]", "result": 0}, {"measurement": "Wheat plant response rating", "setting": "[3]; [30]", "result": 0}, {"measurement": "Plant response rating, Ryegrass, Italian", "setting": "[4]; [31]", "result": 0}, {"measurement": "Plant response rating, Ryegrass, Italian", "setting": "[4]; [32]", "result": 0}, {"measurement": "Plant response rating, Soybean", "setting": "[5]; [29]", "result": 0}, {"measurement": "Soybean plant response rating", "setting": "[5]; [30]", "result": 0}, {"measurement": "Plant response rating, Kochia", "setting": "[6]; [29]", "result": 0}, {"measurement": "Kochia plant response rating", "setting": "[6]; [30]", "result": 0}, {"measurement": "Plant response rating, Barnyardgrass", "setting": "[7]; [31]", "result": 10}, {"measurement": "Plant response rating, Barnyardgrass", "setting": "[7]; [32]", "result": 10}, {"measurement": "Plant response rating, Foxtail, Green", "setting": "[8]; [31]", "result": 0}, {"measurement": "Plant response rating, Foxtail, Green", "setting": "[8]; [32]", "result": 40}, {"measurement": "Plant response rating, Soybean", "setting": "[9]; [31]", "result": 0}, {"measurement": "Plant response rating, Soybean", "setting": "[9]; [32]", "result": 30}, {"measurement": "Plant response rating, Ryegrass, Italian", "setting": "[10]; [29]", "result": 50}, {"measurement": "Ryegrass, Italian plant response rating", "setting": "[10]; [30]", "result": 20}, {"measurement": "Plant response rating, Corn", "setting": "[11]; [29]", "result": 0}, {"measurement": "Corn plant response rating", "setting": "[11]; [30]", "result": 0}, {"measurement": "Plant response rating, Sedge, Umbrella (Flood)", "setting": "[12]", "result": 0}, {"measurement": "Plant response rating, Oat, Wild", "setting": "[13]; [29]", "result": 0}, {"measurement": "Oat, Wild plant response rating", "setting": "[13]; [30]", "result": 0}, {"measurement": "Plant response rating, Blackgrass", "setting": "[14]; [31]", "result": 0}, {"measurement": "Plant response rating, Blackgrass", "setting": "[14]; [32]", "result": 0}, {"measurement": "Plant response rating, Galium", "setting": "[15]; [31]", "result": 20}, {"measurement": "Plant response rating, Galium", "setting": "[15]; [32]", "result": 50}, {"measurement": "Plant response rating, Rice (Flood)", "setting": "[16]", "result": 0}, {"measurement": "Plant response rating, Kochia", "setting": "[17]; [31]", "result": 0}, {"measurement": "Plant response rating, Kochia", "setting": "[17]; [32]", "result": 30}, {"measurement": "Plant response rating, Pigweed, Palmer", "setting": "[18]; [29]", "result": 0}, {"measurement": "Pigweed, Palmer plant response rating", "setting": "[18]; [30]", "result": 0}, {"measurement": "Plant response rating, Barnyardgrass", "setting": "[19]; [29]", "result": 0}, {"measurement": "Barnyardgrass plant response rating", "setting": "[19]; [30]", "result": 0}, {"measurement": "Plant response rating, Barnyardgrass (Flood)", "setting": "[20]", "result": 0}, {"measurement": "Plant response rating, Ragweed", "setting": "[21]; [29]", "result": 60}, {"measurement": "Ragweed plant response rating", "setting": "[21]; [30]", "result": 30}, {"measurement": "Plant response rating, Wheat", "setting": "[22]; [31]", "result": 0}, {"measurement": "Plant response rating, Wheat", "setting": "[22]; [32]", "result": 0}, {"measurement": "Plant response rating, Pigweed, Palmer", "setting": "[23]; [31]", "result": 0}, {"measurement": "Plant response rating, Pigweed, Palmer", "setting": "[23]; [32]", "result": 20}, {"measurement": "Plant response rating, Oat, Wild", "setting": "[24]; [31]", "result": 0}, {"measurement": "Plant response rating, Oat, Wild", "setting": "[24]; [32]", "result": 0}, {"measurement": "Plant response rating, Corn", "setting": "[25]; [31]", "result": 0}, {"measurement": "Plant response rating, Corn", "setting": "[25]; [32]", "result": 0}, {"measurement": "Plant response rating, Ragweed", "setting": "[26]; [31]", "result": 0}, {"measurement": "Plant response rating, Ragweed", "setting": "[26]; [32]", "result": 30}, {"measurement": "Plant response rating, Blackgrass", "setting": "[27]; [29]", "result": 0}, {"measurement": "Blackgrass plant response rating", "setting": "[27]; [30]", "result": 0}, {"measurement": "Plant response rating, Horseweed", "setting": "[28]; [31]", "result": 10}, {"measurement": "Plant response rating, Horseweed", "setting": "[28]; [32]", "result": 10}]}
